pIC50: −log10 of the molar value. Non-standard residues stand in square brackets, D forms with d. Residues, ends and D or L forms follow the SMILES beside them. pGlu = O=C1CC[C@@H](C(=O)O)N1
Molecular target: T1, ACE (rabbit lung-derived) (Oryctolagus cuniculus, UniProt P12822)
T1 construct: 0.3 U/ml of ACE (rabbit lung-derived, manufactured by SIGMA); purchased SIGMA; host or cells: rabbit lung (tissue-derived)
T1 sequence (P12822 34-1310): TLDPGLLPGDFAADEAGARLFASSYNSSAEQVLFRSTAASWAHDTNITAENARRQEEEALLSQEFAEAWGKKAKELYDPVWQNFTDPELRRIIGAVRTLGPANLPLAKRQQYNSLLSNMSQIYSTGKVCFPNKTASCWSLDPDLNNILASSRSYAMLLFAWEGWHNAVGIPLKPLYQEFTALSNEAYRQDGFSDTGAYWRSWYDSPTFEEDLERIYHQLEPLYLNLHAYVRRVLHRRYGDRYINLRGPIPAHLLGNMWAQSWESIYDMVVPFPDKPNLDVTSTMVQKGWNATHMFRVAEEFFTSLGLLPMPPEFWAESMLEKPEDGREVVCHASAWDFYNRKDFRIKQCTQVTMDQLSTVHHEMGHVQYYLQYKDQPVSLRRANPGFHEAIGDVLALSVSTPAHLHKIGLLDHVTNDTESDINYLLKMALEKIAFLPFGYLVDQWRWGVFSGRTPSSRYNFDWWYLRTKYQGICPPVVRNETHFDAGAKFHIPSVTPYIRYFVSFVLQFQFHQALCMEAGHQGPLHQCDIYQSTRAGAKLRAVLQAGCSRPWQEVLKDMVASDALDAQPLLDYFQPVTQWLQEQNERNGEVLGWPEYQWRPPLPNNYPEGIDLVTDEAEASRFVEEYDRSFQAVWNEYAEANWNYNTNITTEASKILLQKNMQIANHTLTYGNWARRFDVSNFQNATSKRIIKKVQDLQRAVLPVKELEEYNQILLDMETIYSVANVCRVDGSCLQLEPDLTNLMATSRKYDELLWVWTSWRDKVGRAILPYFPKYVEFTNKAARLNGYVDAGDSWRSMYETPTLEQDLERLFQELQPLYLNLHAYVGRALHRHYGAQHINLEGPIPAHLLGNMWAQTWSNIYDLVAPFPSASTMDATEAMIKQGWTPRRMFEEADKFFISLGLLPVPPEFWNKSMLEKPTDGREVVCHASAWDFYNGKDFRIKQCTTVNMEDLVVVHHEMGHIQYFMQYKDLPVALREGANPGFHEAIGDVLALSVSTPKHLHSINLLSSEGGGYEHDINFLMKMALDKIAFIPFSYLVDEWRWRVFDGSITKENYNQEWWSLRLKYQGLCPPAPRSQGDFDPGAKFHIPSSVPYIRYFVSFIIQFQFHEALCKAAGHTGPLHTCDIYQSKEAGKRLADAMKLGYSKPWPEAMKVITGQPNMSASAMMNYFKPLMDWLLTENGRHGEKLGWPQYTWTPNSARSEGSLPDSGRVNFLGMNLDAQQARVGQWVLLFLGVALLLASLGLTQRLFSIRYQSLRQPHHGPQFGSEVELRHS
Experiment: ACE inhibitory activity (modified method of Yamamoto et al., Hippuryl-His-Leu substrate)
Format: biochemical
Details: pH 8.3, 37° C., 30 minutes, chemically synthesized peptides
Experimental: ACE inhibitory activity of the peptides obtained by the aforementioned synthesis method was measured. As the measuring method, it was carried out by a method in which the method of Yamamoto et al. (Setsuko Yamamoto et al., Journal of the Japan Society of Chest Diseases, 1980, 18, p. 297-302) was partially modified. Namely, 140 μl of sample solution, 10 μl of enzyme solution (0.3 U/ml of ACE (rabbit lung-derived, manufactured by SIGMA) and 50 mM borate buffer (pH 8.3) were added to 100 μl of a substrate solution (12.5 mM Hippuryl-His-Leu (manufactured by SIGMA), 100 mM borate buffer pH 8.3, 1M NaCl), and the reaction was carried out at 37° C. for 30 minutes. Subsequently, the reaction was stopped by adding 250 μl of 1 N hydrochloric acid and, after stirring by adding 1.5 ml of ethyl acetate and subsequent centrifugation, 1 ml of the ethyl acetate layer was concentrated and dried by centrifugal concentration followed by dissolution in 1 ml of ultrapure water to measure the absorbance at 228 nm. The ACE inhibitory ratio is represented by the following formula. ACE inhibitory ratio (%)={1−(ODs−ODsb)/(ODc−ODcb)}×100
In this connection, ODs is the absorbance when the reaction was carried out by adding the enzyme solution to a sample as described above; ODsb is the absorbance when ultrapure water was added instead of the enzyme solution; ODc is the absorbance when ultrapure water was added instead of the sample solution; and ODcb is the absorbance when ultrapure water was added instead of the enzyme solution and sample solution. Additionally, the concentration of a sample which gives 50% of the enzyme activity inhibitory ratio on this reaction system is regarded as the IC50 value.

Structure (SMILES)	pIC50
O=C1CC[C@@H](C(=O)N2CCC[C@H]2C(=O)O)N1 [pyroGlu-Pro] ([pGlu]-Pro-OH; C-terminus assumed)	3.97
NC(=O)C[C@H](N)C(=O)N[C@@H](Cc1c[nH]c2ccccc12)C(=O)O [Asn-Trp] (H-Asn-Trp-OH; N-terminus and C-terminus assumed)	4.60
C[C@@H](O)[C@H](NC(=O)[C@@H](N)Cc1ccc(O)cc1)C(=O)O [Tyr-Thr] (H-Tyr-Thr-OH)	4.46
O=C(O)[C@H](Cc1c[nH]c2ccccc12)NC(=O)[C@@H]1CCCN1 [Pro-Trp] (H-Pro-Trp-OH; N-terminus and C-terminus assumed)	3.73
